Experimental data from patent US8901138B2, “Sulfoximine substituted quinazolines for pharmaceutical compositions” (Boehringer Ingelheim International GmbH, priority 2012, dated 2014).

Assays:
[1] = molecular target: T1, MNK2a (Homo sapiens, UniProt Q9HBH9); assay: MNK2a in vitro kinase assay (assay 1), ADP-Glo; type: biochemical; conditions: preactivated GST-MNK2a, 20 μM ATP, read-out: MNK2 IC50
T1 construct: made in house
Experimental: A. MNK2a In Vitro Kinase Assay (Assay 1)
ASSAY SETUP: The inhibition of kinase activity of MNK2a was assessed using preactivated GST-MNK2a. The white, 384-well OptiPlate F plates were purchased from Perkin Elmer. The ADP-Glo Kinase Assay (including ultra pure ATP) was purchased from Promega (V9103). Activated MNK2a was obtained as described in WO2011/104340. The unlabeled eIF4E peptide (NH2-[…]—CONH2) (SEQ ID NO: 1), differing from Seq. ID No. 5 of WO 2011/104340 by the C-terminal —CONH2 group, was purchased from Thermo Fisher Scientific. All other materials were of highest grade commercially available. Compounds are tested in either serial dilutions or single dose concentrations. The compound stock solutions are 10 mM in 100% DMSO The serial compound dilutions are prepared in 100% DMSO followed by 1:27.3 intermediate dilution in assay buffer. The final DMSO concentration in assay will be <3%. In the 384-well plates 3 μl of test compound from the intermediate dilution is mixed with 4 μl of the activated MNK2 enzyme (final concentration of 10 nM) and 4 μl of the peptide (final concentration of 25 μM)/ultra pure ATP (final concentration of 20 μM), all dissolved in assay buffer. This step is followed by an incubation time of 90 min, then 10 μl of ADP Glo reagent are added, followed by 40 min of incubation. Then 20 μl of kinase detection reagent are admixed. The plates are sealed and after an incubation period of 30 min, the luminescence signal is measured in an Envision reader to determine the amount of produced ADP. All incubation steps are performed at room temperature. The assay buffer consists of 20 mM HEPES, 2 mM DTT, 0.01% BSA, 20 mM MgCl2 and 0.1% Pluronic F-127.
Each assay microtiter plate contains wells with vehicle controls instead of compound (1% DMSO in water) as reference for the high signal (100% CTL, high signal), and wells containing a potent MNK2 inhibitor (final 20 μM, 1% DMSO) as reference for low signal (0% CTL, low signal).
The luminescent signal generated is proportional to the ADP concentration produced and is correlated with activated MNK2 activity. The analysis of the data is performed by the calculation of the percentage of ATP consumption of activated MNK2 in the presence of the test compound compared to the consumption of ATP in the presence of activated MNK2 without compound. (RLU(sample)−RLU(low control))*100/(RLU(high value)−RLU(low control)) [RLU=relative luminescence units]
An inhibitor of the MNK2 enzyme will give values between 100% CTL (no inhibition) and 0% CTL (complete inhibition). Values of more than 100% CTL are normally related to compound/sample specific physico-chemical properties (e.g. solubility, light absorbance, fluorescence).
IC50 values based on dose response curves are calculated with the AssayExplorer software.

[2] = molecular target: MNK1a (Homo sapiens, UniProt Q9BUB5); assay: MNK1 in vitro kinase assay (assay 2), Z'-LYTE; type: biochemical; conditions: for inhibition at 1 µM: compound concentration of 1 μM; for IC50: pre-activated GST-MNK1a
Source text: B. MNK1 In Vitro Kinase Assay (Assay 2)
MNK1 Data can be obtained from the MNK1 Z′-LYTE® assay. The MNK1 Z′-LYTE® screening protocol and assay conditions are also described on www.invitrogen.com.
The assay is described as follows:
The Z′-LYTE® biochemical assay employs a fluorescence-based, coupled-enzyme format and is based on the differential sensitivity of phosphorylated and non-phosphorylated peptides to proteolytic cleavage. The peptide substrate is labeled with two fluorophores—one at each end—that make up a FRET pair.
In the primary reaction, the kinase transfers the gamma-phosphate of ATP to a single tyrosine, serine or threonine residue in a synthetic FRET-peptide. In the secondary reaction, a site-specific protease recognizes and cleaves non-phosphorylated FRET-peptides. Phosphorylation of FRET-peptides suppresses cleavage by the Development Reagent. Cleavage disrupts FRET between the donor (i.e., coumarin) and acceptor (i.e., fluorescein) fluorophores on the FRET-peptide, whereas uncleaved, phosphorylated FRET-peptides maintain FRET. A ratiometric method, which calculates the ratio (the Emission Ratio) of donor emission to acceptor emission after excitation of the donor fluorophore at 400 nm, is used to quantitate reaction progress, as shown in the equation below. Emission Ratio=Coumarin Emission(445 nm)/Fluorescein Emission(520 nm)
ASSAY SETUP: The inhibition of kinase activity of MNK1a was assessed using pre-activated GST-MNK1a. The 2×MKNK1 (MNK1) mixture is prepared in 50 mM HEPES pH 7.5, 0.01% BRIJ-35, 10 mM MgCl2, 4 mM MnCl2, 1 mM EGTA, 2 mM DTT. The final 10 μL Kinase Reaction consists of 13.5-54 ng MKNK1 (MNK1) and 2 μM Ser/Thr 07 in 50 mM HEPES pH 7.5, 0.01% BRIJ-35, 10 mM MgCl2, 2 mM MnCl2, 1 mM EGTA, 1 mM DTT. After the 1 hour Kinase Reaction incubation, 5 μL of a 1:32768 dilution of Development Reagent A is added.
The Test Compounds are screened in 1% DMSO (final) in the well.
All Peptide/Kinase Mixtures are diluted to a 2× working concentration in the MNK1 Kinase Buffer.
All ATP Solutions are diluted to a 4× working concentration in Kinase Buffer (50 mM HEPES pH 7.5, 0.01% BRIJ-35, 10 mM MgCl2, 1 mM EGTA).
Development Reagent Solution:
The Development Reagent is diluted in Development Buffer
Bar-coded Corning, low volume NBS, 384-well plate (Corning Cat. #3676)
1. 2.5 μL-4× Test Compound
2. 5 μL-2× Peptide/Kinase Mixture
5. 60-minute Kinase Reaction incubation at room temperature
6. 5 μL-Development Reagent Solution
8. 60-minute Development Reaction incubation at room temperature
9. Read on fluorescence plate reader and analyze the data
The following equations are used for each set of data points: […]
Correction for Background Fluorescence: FSample−FITCFl Ctl
Emission Ratio (using values corrected for background fluorescence):Coumarin
Emission (445 nm)/Fluorescein Emission (520 nm)
% Phosphorylation (% Phos): 1−((Emission Ratio×F100%)−C100%)/((C0%−C100%)+[Emission Ratio×(F100%−F0%)])*100 % Inhibition: 1−(% PhosSample/% Phos0% Inhibition Ctl)*100 FI=Fluorescence Intensity C100%=Average Coumarin emission signal of the 100% Phos. Control C0%=Average Coumarin emission signal of the 0% Phos. Control F100%=Average Fluorescein emission signal of the 100% Phos. Control F0%=Average Fluorescein emission signal of the 0% Phos. Control Graphing Software
SelectScreen® Kinase Profiling Service uses XLfit from IDBS. The dose response curve is curve fit to model number 205 (sigmoidal dose-response model).

Chain of MNK1a (Q9BUB5 1-424 isoform Q9BUB5-2): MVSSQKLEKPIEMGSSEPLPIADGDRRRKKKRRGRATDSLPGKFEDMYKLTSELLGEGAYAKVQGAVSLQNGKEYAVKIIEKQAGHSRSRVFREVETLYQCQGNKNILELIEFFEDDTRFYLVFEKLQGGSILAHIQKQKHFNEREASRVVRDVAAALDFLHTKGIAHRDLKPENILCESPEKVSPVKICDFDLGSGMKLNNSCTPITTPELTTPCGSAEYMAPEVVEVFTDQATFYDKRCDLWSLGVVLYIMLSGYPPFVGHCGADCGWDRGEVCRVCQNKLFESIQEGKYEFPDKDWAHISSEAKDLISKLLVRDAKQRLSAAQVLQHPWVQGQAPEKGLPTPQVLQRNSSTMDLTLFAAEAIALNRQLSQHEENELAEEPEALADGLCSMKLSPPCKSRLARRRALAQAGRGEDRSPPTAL
T1 sequence (Q9HBH9 whole entry): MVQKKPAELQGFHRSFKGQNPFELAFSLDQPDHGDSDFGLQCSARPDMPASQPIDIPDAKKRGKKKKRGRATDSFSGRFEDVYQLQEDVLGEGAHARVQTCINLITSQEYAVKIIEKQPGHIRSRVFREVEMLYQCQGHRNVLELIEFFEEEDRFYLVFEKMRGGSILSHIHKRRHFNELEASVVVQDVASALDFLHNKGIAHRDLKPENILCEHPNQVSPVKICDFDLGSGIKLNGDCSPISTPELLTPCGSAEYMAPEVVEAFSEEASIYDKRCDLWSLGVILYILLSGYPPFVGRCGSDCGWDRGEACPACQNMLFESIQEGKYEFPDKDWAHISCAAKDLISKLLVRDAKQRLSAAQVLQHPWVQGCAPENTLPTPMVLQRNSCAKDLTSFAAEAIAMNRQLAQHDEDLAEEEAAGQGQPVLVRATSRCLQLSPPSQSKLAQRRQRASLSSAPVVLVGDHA

SMILES	IC50 [1]	inhibition at 1 µM [2]	IC50 [2]
Cc1cc(N=S(C)(C)=O)cc2ncnc(Nc3ccc(F)cc3O[C@@H]3CCCN(CC(F)(F)F)C3)c12 [Example 6.6]	2 nM	92%	–
CO[C@@H]1CO[C@H]2[C@@H]1OC[C@H]2Oc1cc(F)ccc1Nc1ncnc2cc(N=S(C)(C)=O)cc(OCCF)c12 [Example 5.6]	2 nM	–	25 nM
Cc1cc(N=S2(=O)CCCC2)cc2ncnc(Nc3cccnc3O[C@@H]3CO[C@H]4[C@@H]3OC[C@H]4O)c12 [Example 2.4]	4 nM	97%	–
Cc1cc(N=S(C)(C)=O)cc2ncnc(Nc3ccc(F)cc3OC3(C)COC3)c12 [Example 1.31]	13 nM	87%	–
Cc1cc(N=S(C)(C)=O)cc2ncnc(Nc3ccc(F)cc3O[C@@H]3CO[C@H]4[C@@H]3OC[C@H]4OC(C)C)c12 [Example 2.28]	4 nM	98%	–
CO[C@H]1CC[C@H](Oc2cc(F)ccc2Nc2ncnc3cc(N=S4(=O)CCN(C(=O)OC(C)(C)C)CC4)cc(C)c23)CC1 [Example 2.14]	9 nM	52%	–
Cc1cc(N=S(C)(C)=O)cc2ncnc(Nc3ccc(C#N)cc3O[C@H]3CC[C@H](O)CC3)c12 [Example 2.65]	5 nM	98%	–
CS(C)(=O)=Nc1cc(C#N)c2c(Nc3ccc(F)cc3O[C@H]3CCOC3)ncnc2c1 [Example 7.9]	3 nM	96%	–
Cc1cc(N=S(C)(C)=O)cc2ncnc(Nc3cccnc3O[C@@H]3CO[C@H]4[C@@H]3OC[C@H]4O)c12 [Example 1.9]	6 nM	90%	–
CO[C@H]1CC[C@H](Oc2cc(F)ccc2Nc2ncnc3cc(N=S4(=O)CCN(C(C)=O)CC4)cc(C)c23)CC1 [Example 7.2]	6 nM	82%	–
Cc1cc(N=S2(=O)CCCC2)cc2ncnc(Nc3ccc(F)cc3O[C@@H]3CCCNC3)c12 [Example 3.12]	3 nM	95%	–
Cc1cc(N=S(C)(=O)c2ccccn2)cc2ncnc(Nc3ccc(F)cc3O[C@H]3CCOC3)c12 (stereo partly drawn) [Example 2.38]	7 nM	82%	–
CO[C@H]1CC[C@H](Oc2ncccc2Nc2ncnc3cc(N=S(C)(C)=O)cc(F)c23)CC1 [Example 2.49]	4 nM	86%	–
Cc1cc(N=S(C)(C)=O)cc2ncnc(Nc3ccc(Cl)nc3O[C@H]3CCOC3)c12 [Example 1.41]	3 nM	–	74 nM
Cc1cc(N=S(C)(C)=O)cc2ncnc(Nc3ccc(F)cc3O[C@@H]3CO[C@@H]4OCC[C@@H]43)c12 (racemic) [Example 2.62]	11 nM	73%	–
CNC(=O)N1CCS(=O)(=Nc2cc(C)c3c(Nc4ccc(F)cc4O[C@H]4CC[C@H](OC)CC4)ncnc3c2)CC1 [Example 7.4]	7 nM	88%	–

SMILES	IC50 [1]	inhibition at 1 µM [2]	IC50 [2]
Cc1cc(N=S2(=O)CCCC2)cc2ncnc(Nc3ccc(F)cc3O[C@H]3CC[C@H](O)CC3)c12 [Example 2.40]	2 nM	100%	56 nM
Cc1cc(N=S(C)(=O)c2cccnc2)cc2ncnc(Nc3ccc(F)cc3O[C@H]3CCOC3)c12 (stereo partly drawn) [Example 2.102]	5 nM	–	131 nM
CCS(C)(=O)=Nc1cc(C)c2c(Nc3ccc(F)cc3OC3CCOC3)ncnc2c1 (single isomer, unassigned) [Example 7.13]	2 nM	98%	–
CS(C)(=O)=Nc1cc(F)c2c(Nc3ccc(F)cc3O[C@@H]3CCNC3)ncnc2c1 [Example 3.7]	36 nM	81%	–
Cc1cc(N=S(C)(C)=O)cc2ncnc(Nc3ccccc3OC3CCOCC3)c12 [Example 1.12]	21 nM	92%	–
Cc1cc(N=S(C)(C)=O)cc2ncnc(Nc3ccc(F)cc3OC3COC3)c12 [Example 2.126]	10 nM	93%	–
CO[C@H]1CC[C@H](Oc2cc(F)ccc2Nc2ncnc3cc(N=S4(=O)CCN(C)CC4)cc(C)c23)CC1 [Example 7.1]	5 nM	86%	–
CS(C)(=O)=Nc1cc(C(F)F)c2c(Nc3ccc(F)cc3O[C@H]3CCOC3)ncnc2c1 [Example 1.21]	2 nM	–	21 nM
CO[C@@H]1CCC[C@H]1Oc1cc(F)ccc1Nc1ncnc2cc(N=S(C)(C)=O)cc(C)c12 [Example 1.36]	2 nM	84%	–
CO[C@H]1CC[C@H](Oc2cc(F)ccc2Nc2ncnc3cc(N=S4(=O)CCN(C(=O)N(C)C)CC4)cc(C)c23)CC1 [Example 7.5]	7 nM	77%	–
O=S1(=Nc2cc(Cl)c3c(Nc4ccc(F)cc4O[C@@H]4CO[C@@H]5CCO[C@@H]54)ncnc3c2)CCC1 [Example 1.27]	1 nM	–	11 nM
CS(C)(=O)=Nc1cc(F)c2c(Nc3ccc(F)cc3O[C@@H]3CCCN(Cc4ncon4)C3)ncnc2c1 [Example 6.12]	12 nM	91%	–
Cc1cc(N=S(C)(C)=O)cc2ncnc(Nc3ccc(F)cc3O[C@H]3CC[C@H](C#N)CC3)c12 [Example 4.4]	4 nM	92%	–
O=S1(=Nc2cc(Cl)c3c(Nc4ccc(F)cc4O[C@H]4CCOC4)ncnc3c2)CCC1 [Example 1.26]	2 nM	100%	–
Cc1cc(N=S(C)(C)=O)cc2ncnc(Nc3ccc(F)cc3O[C@H]3C[C@H](N(C)C)C3)c12 [Example 7.15]	10 nM	92%	–
